Assay results published in PubChem BioAssay (NCI).
“And” between values parts separate entries of the source, which are not always exact repeats. Identical values can stand only once.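 Five compound concentrations were applied to cells in 96-well plates for 48 hours; endpoints were derived by simple linear interpolation of the resulting dose-response curve. GI50 = concentration required for 50% inhibition of growth. TGI is the concentration that stops growth completely.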 Where a SMILES comes first, the peptide text is derived from it. The star is where a group is joined. Cbz = O=C(OCc1ccccc1)*

Tests used:
Assay in all cases: NCI tumour cell line growth inhibition, 48 h
[1] = system: SN12C renal
[2] = system: SNB-78 CNS
[3] = system: HOP-18 NSCLC
[4] = system: KM20L2 colon
[5] = system: SN12K1 renal
[6] = system: XF 498 CNS
[7] = system: DLD-1 colon
[8] = system: DMS 273 small cell lung
[9] = system: DMS 114 small cell lung
[10] = system: M19-MEL melanoma
[11] = system: P388/ADR leukemia
[12] = system: LXFL 529 NSCLC

CC(=O)Oc1c(OC(C)=O)c(-c2ccc(O)c(O)c2)c(O)c(O)c1-c1ccc(O)cc1
GI50 [1]: 73.8 µM | TGI [1]: > 100 µM | GI50 [2]: > 100 µM | TGI [2]: > 100 µM | TGI [3]: > 100 µM | GI50 [4]: 40.7 µM | TGI [4]: > 100 µM | GI50 [5]: 48.6 µM | TGI [5]: > 100 µM | GI50 [6]: 46 µM | TGI [6]: > 100 µM | TGI [7]: > 100 µM | GI50 [8]: 67.1 µM | TGI [8]: > 100 µM | GI50 [9]: 19.1 µM | TGI [9]: 44 µM and 57.4 µM | GI50 [10]: 18.1 µM | TGI [10]: 53.7 µM and 68.5 µM | TGI [11]: 50 µM

CCCc1c2c3ccccc3nc-2nc2ccccn12
TGI [1]: > 100 µM

NNC(=O)c1n[nH]nc1SSc1n[nH]nc1C(=O)NN
TGI [1]: > 100 µM

CCOC(=O)C(C)NC(=O)C(C)NC(=O)C(C)NC(=O)C(C)NC(=O)C(C)NC(=O)C(C)NC(=O)C(C)NC(=O)OCc1ccccc1 (stereo unspecified) (Cbz-AAAAAAA-OEt; configuration not given here)
TGI [1]: > 100 µM

Cc1ccc(C2=Nc3c(N)nc(N)nc3NC(c3ccccc3)C2)cc1 (stereo unspecified)
TGI [1]: 23.7 µM and 32 µM

C=C1C(=O)OC2/C=C(\C)C(O)/C=C\C(C)(O)CC(OC(=O)/C(C)=C/C)C12 (stereo unspecified)
TGI [1]: 53.5 µM | TGI [2]: > 100 µM | TGI [3]: > 100 µM | TGI [4]: > 38.5 µM | TGI [6]: > 58.4 µM | TGI [7]: 28.3 µM | TGI [8]: 37.3 µM | TGI [12]: 29.1 µM | TGI [9]: > 78.2 µM | TGI [10]: 37 µM

COc1ccc(NC2=NCCO2)c2ccccc12
TGI [1]: > 10 µM

O=C(NCc1ccccc1)c1cnc(Cl)cn1
TGI [1]: > 100 µM

O=C(O)c1ccccc1/C=N\NC1=NCCN1
TGI [1]: > 100 µM

CC(C)[Si]1(C(C)C)OCC2OC(n3ccc(=O)[nH]c3=O)C(O)(CO)C2O[Si](C(C)C)(C(C)C)O1 (stereo unspecified)
TGI [1]: 29.8 µM

Cn1c(=O)n(CC(Br)CBr)c(=O)n(CC(Br)CBr)c1=O (stereo unspecified)
TGI [1]: 67.3 µM

Cc1[nH]c2ccccc2c1C=Nc1ccc(Oc2ccccc2)cc1
TGI [1]: 31.9 µM

CC(C)(C)OC(=O)N1CCC23CCCC2C(=O)CC=C13 (stereo unspecified)
TGI [1]: > 100 µM

COC(=O)C1=C(C)NC(C)=C([N+](=O)[O-])C1c1cccc(NO)c1 (stereo unspecified)
TGI [1]: > 30.8 µM

C#CCOC(=O)c1ccccc1OC(C)=O
TGI [1]: > 100 µM

O=C(/C=C/c1ccc(Cl)c(Cl)c1)Oc1ccc(/C=C2\CCCCC2=O)cc1
TGI [1]: > 100 µM

COC/C=C\[C@@]1(O)CCCC[C@@H]1CC(OC)OC
TGI [1]: 43.7 µM

Cc1ccc(S(=O)(=O)N/N=C2\C=C[C@]3(CC2)C(=O)N(C)c2ccccc23)cc1
TGI [1]: > 100 µM

COc1cc2c(cc1OC)CCN=C2
TGI [1]: > 100 µM
